Measurements as given in patent US4619939A, “Process for reducing intraocular pressure” (priority 1985, dated 1986).
Read-outs that look alike come from different tables or passages of the source.

How the values were obtained:
stability in solution = format: physicochemical
Description: The final property which is necessary for a compound used in this invention is that it be stable against decomposition in solution and in contact with the cornea. This property may be tested by dissolving the compound in aqueous solution and in solution containing corneal tissue to determine whether the compound has remained stable or has decomposed into other materials.

[1] = pKa by titration with NaOH; format: physicochemical
Description: The pKa may be measured by titrating the compound with NaOH and finding the point at which half of the compound is neutralized. The pH at this point is the pKa.

[2] = first order rate constant for penetration through living rabbit cornea; format: in vivo
Method: Still another critical property of the inhibitor compounds employed in this invention is that the compound must have a first order rate constant for penetration of the compound through a living rabbit cornea of at least 0.005 hr^-1. This property is important in that it sets a standard for a speed in which the inhibitor will pass through the cornea to the interior of the eye and be available to inhibit the activity of carbonic anhydrase in that location. This is measured by placing a solution of the compound (about 0.5 ml) on the cornea of the living, lightly anesthetized rabbit. The lids are held by light hemostats in such a way as to create a well to hold the solution so that a steady state concentration is achieved. At timed intervals, samples are withdrawn from the anterior chamber of the rabbit and the fluid analyzed for the concentration of drug. The analyses are done by the method of Maren, supra. The data are treated to yield the first order rate constants which are cited herein.

[3] = topical administration of prior art inhibitors, intraocular pressure; format: in vivo
solubility in water = settings: for ability to form an aqueous solution of sufficient concentration for topical use: near neutral pH
[4] = Foss 1955; cited from earlier work
injury to the cornea = format: in vivo; settings: 2-5% solution
Description: Still another critical property of the compounds employed in this invention is that they be pharmaceutically acceptable and not be injurious to the cornea being treated.

[5] = ether partition coefficient at pH 7.2; format: physicochemical
Method: This property in conjunction with the chloroform coefficient is a measure of the lipid solubility of this compound. This is a critical feature since the compound must be readily absorbed by the lipid materials in the eye and be available for intimate contact with carbonic anhydrase so as to control its activity. This property is measured by preparing an aqueous solution of the compound at pH 7.2 and shaking the solution with an equal volume of ether until equilibrium is achieved in the system. An ether layer and an aqueous layer are formed, separated, and each analyzed for its content of the compound. The coefficient is the ratio of the amount of the compound in the ether layer to the amount of the compound in the aqueous layer. See, e.g., Maren, J. Pharm. […] Therap. Vol. 130, p.

[6] = chloroform partition coefficient at pH 7.2; format: physicochemical
Method: Another critical property necessary in the inhibitors employed in this invention is the chloroform partition coefficient which must be at least 0.01. This property also relates to the lipid solubility of the compound employed and it is measured as described above with respect to ether. The procedure is the same as that described above except that chloroform is employed in place of ether.

carbonic anhydrase = carbonic anhydrase (Homo sapiens, UniProt P00918); experiment: dissociation constant against carbonic anhydrase; format: biochemical
Description: The dissociation constant is the concentration of the compound that will inhibit one-half of the carbonic anhydrase in a test system wherein the conditions are so arranged that the compound is present in excess of the carbonic anydrase.

Q: For `NS(=O)(=O)c1nnc(-c2ccccc2Cl)s1` [2-orthochlorophenylthiadiazole-5-sulfonamide], which stability in solution (stability in solution) is on record?
A: stable in solution

Q: What about the pKa ([1]; read-out: pKa) of the same molecule?
A: 7.3

Q: And the “in vivo rabbit cornea penetration rate constant” value [2]?
A: 0.3 h⁻¹

Q: With `CC(=O)/N=c1/sc(S(N)(=O)=O)nn1C` [Methazolamide, 2-acetylimino-3-methyl-Δ^2-1,3,4-thiadiazoline-5-sulfonamide] as the molecule, how does the pKa [1] read?
A: 7.4

Q: And the “reduction of intraocular pressure by topical application” value [3]?
A: not reduced except to a very slight extent in one of the series of tests

Q: What about the “ability to form an aqueous solution of sufficient concentration for topical use” value (solubility in water) of the same molecule?
A: cannot be made into a neutral solution with a sufficiently high concentration

Q: What does the source list for `CC(=O)Nc1nnc(S(N)(=O)=O)s1` [acetazolamide, 2-acetylamino-1,3,4-thiadiazole-5-sulfonamide]?
A: lowering intraocular pressure by topical administration [4]: completely unsuitable; ability to form an aqueous solution of sufficient concentration for topical use (solubility in water): cannot be made into a water solution below pH 8 at concentrations sufficiently high

Q: Which pKa [1] does the source give for `CCOc1ccc2nc(S(N)(=O)=O)sc2c1` [ethoxzolamide, 6-ethoxy-benzothiazole-2-sulfonamide] here?
A: 8.1

Q: What about the “reduction of intraocular pressure by topical application” value [3] of the same molecule?
A: ineffective

Q: And the solubility (solubility in water; water)?
A: ≤ 0.04 mg/mL

Q: With `Cn1nc(S(N)(=O)=O)sc1=NC(=O)C(Cl)(Cl)Cl` [trichloromethazolamide, 2-trichloroacetylimino-3-methyl-Δ^2-1,3,4-thiadiazoline-5-sulfonamide] as the molecule, how does the “injury or clouding of the cornea” value (injury to the cornea) read?
A: does not injure or cloud the cornea

Q: What about the stability in solution (stability in solution) of the same molecule?
A: stable in solution for at least six hours

Q: What about the pKa ([1]; read-out: pKa) of the same molecule?
A: 7

Q: And the ether partition coefficient [5]?
A: 56

Q: What about the chloroform partition coefficient [6] of the same molecule?
A: 4

Q: What about the “in vivo rabbit cornea penetration rate constant” value [2] of the same molecule?
A: 0.063 h⁻¹

Q: What about the Ki (carbonic anhydrase) of the same molecule?
A: 0.02 µM

Q: With `Cn1nc(S(N)(=O)=O)sc1=NC(=O)C(F)(F)F` [trifluoromethazolamide, 2-trifluoroacetylimino-3-methyl-Δ^2-1,3,4-thiadiazoline-5-sulfonamide] as the molecule, how does the “injury or clouding of the cornea” value (injury to the cornea) read?
A: does not injure or cloud the cornea

Q: What about the stability in solution (stability in solution) of the same molecule?
A: stable in solution for two hours

Q: And the pKa [1]?
A: 6.6

Q: What about the ether partition coefficient [5] of the same molecule?
A: 6.0

Q: What about the chloroform partition coefficient [6] of the same molecule?
A: 0.3

Q: And the “in vivo rabbit cornea penetration rate constant” value [2]?
A: 0.014 h⁻¹
